Columns and labels:
[1] = ACMIA assay for tacrolimus on unknown samples known to contain endogeneous interfering substances
[2] = system: endogeneous binding proteins; assay: ACMIA assay for tacrolimus on spiked whole blood samples with and without SIRO displacing agent (free vs bound tacrolimus); type: in vitro ADME; conditions: for Protein-Bound: +SIRO minus −SIRO; for +SIRO ng/mL (free plus bound tacrolimus): with SIRO displacer
Description: Testing is carried out using the DIMENSION® RxL analyzer, available from Siemens Healthcare Diagnostics Inc., Newark Del. The instrument is employed using ACMIA immunoassay technology. The ACMIA assay method is described in U.S. Pat. Nos. 7,186,518, 5,147,529, 5,128,103, 5,158,871, 4,661,408, 5,151,348, 5,302,532, 5,422,284, 5,447,870, and 5,434,051, the disclosures of which are incorporated herein in their entirety. In the embodiment of the ACMIA method used herein and discussed in more detail below, competition between tacrolimus analog on chrome particles and tacrolimus in patient samples for antibody for tacrolimus conjugated to an enzyme (the “conjugate”) is utilized to determine the amount of tacrolimus in patient samples. Conjugate that binds to the tacrolimus analog on chrome particles is removed by magnetic separation. The enzymatic activity from conjugate remaining in the supernatant is measured and is directly proportional to the amount of tacrolimus in the patient sample. In the ACMIA assay format employed, the enzymatic activity observed when testing a sample containing no tacrolimus is indicative of the amount of enzymatic activity that is not bound to active antibody (i.e., cannot bind tacrolimus on chrome particles). The enzymatic activity observed when no chrome particle is present is indicative of the total amount of enzymatic activity in the conjugate. These values can be used to estimate the percent of enzymatic activity bound to active antibody.
Tacrolimus-free whole blood pools are screened by running the above mentioned ACMIA assay to identify whole blood pools that are substantially free from endogenous interfering substances. The screening is carried out by examining the consistency of tacrolimus recoveries of the pools to the individual tacrolimus-free whole blood samples. If the recoveries of the majority of the tacrolimus-free whole blood samples are within the low end sensitivity of the assay when the pool is used as the tacrolimus-free calibrator, the pool is accepted as a matrix free from endogenous interfering substances. The pool is then used to make the tacrolimus calibrators (or standards) by spiking different amounts of pure tacrolimus into the pool. The calibrators (which are substantially free from endogenous interfering substances) are then employed to generated the relationship of [Z]=a[Y]+b during the method calibration, which is achieved by testing the calibrators in the presence and absence of a displacing agent (sirolimus). Both [Z] and [Y] are generated from the calibration. The [Z] values of the calibrators are generated by running the calibrators in the absence of the displacing agent (representing the free drug) and the [Y] values of the calibrators are generated by subtracting the [Z] value from the total drug measured in the presence of the displacing agent (representing the bound drug). Calibrators made from a whole blood pool that is substantially free from endogeneous interfering substances are selected for use in the experiments below.
The whole blood pool substantially free from endogeneous interfering substances identified above is used. Aliquots (100 mL) of the whole blood pool are spiked with various amounts of tacrolimus so that the resulting concentration of tacrolimus in the whole blood samples is 0, 2.8, 6.0, 11.9 and 31.3 ng/mL (samples I-V).
A set of samples I-V is treated as follows: To each sample is added a sirolimus (SIRO) displacing agent for displacing tacrolimus in the sample from endogeneous binding proteins. The formulation for the SIRO displacement solution is set forth in more detail in Table 1.
The samples are incubated at 37° C. for a period of 140 minutes in the presence of displacing agent to displace tacrolimus from endogeneous binding substances. […]

[3] = ACMIA assay for tacrolimus on unknown samples known to contain endogeneous interfering substances; conditions: for Estimated True: [Y]+[Z]; for Free drug: [Z]=0.218[Y]+0.0981
Description: Testing is carried out using the DIMENSION® RxL analyzer, available from Siemens Healthcare Diagnostics Inc., Newark Del. The instrument is employed using ACMIA immunoassay technology. The ACMIA assay method is described in U.S. Pat. Nos. 7,186,518, 5,147,529, 5,128,103, 5,158,871, 4,661,408, 5,151,348, 5,302,532, 5,422,284, 5,447,870, and 5,434,051, the disclosures of which are incorporated herein in their entirety. In the embodiment of the ACMIA method used herein and discussed in more detail below, competition between tacrolimus analog on chrome particles and tacrolimus in patient samples for antibody for tacrolimus conjugated to an enzyme (the “conjugate”) is utilized to determine the amount of tacrolimus in patient samples. Conjugate that binds to the tacrolimus analog on chrome particles is removed by magnetic separation. The enzymatic activity from conjugate remaining in the supernatant is measured and is directly proportional to the amount of tacrolimus in the patient sample. In the ACMIA assay format employed, the enzymatic activity observed when testing a sample containing no tacrolimus is indicative of the amount of enzymatic activity that is not bound to active antibody (i.e., cannot bind tacrolimus on chrome particles). The enzymatic activity observed when no chrome particle is present is indicative of the total amount of enzymatic activity in the conjugate. These values can be used to estimate the percent of enzymatic activity bound to active antibody. The ACMIA assay for tacrolimus is as follows: 15 μL of a whole blood samples I-V from above (substantially free from endogeneous interfering substances and spiked with tacrolimus) is mixed with the SIRO displacement solution (Table 1) in a vessel on the DIMENSION® RxL analyzer. The whole blood is sampled from a standard cup by first mixing the blood with the ultrasonic sample probe. The mixing of whole blood sample with the SIRO displacement solution ensures the displacement of the bound tacrolimus molecules from their binding sites when the SIRO molecules are present. As a result, the signal generated from this assay is related to the amount of free tacrolimus analyte plus the amount of displaced tacrolimus analyte (bound analyte) in the sample. Anti-tacrolimus antibody-β-galactosidase conjugate (50 μL) is added next to each of the reaction vessels and the mixture is held for a period of time (10 to 15 minutes) and at a temperature of 43° C. to allow tacrolimus, if present, to react with the antibody reagent. Chrome particles with immobilized tacrolimus-CM0-DA10-Dexal are added (50 μL) to each of the reaction vessels and are allowed to bind un-bound conjugate. […] The tacrolimus-bound conjugate is detected by transferring the supernatant from each of the reaction vessels to a photometric cuvette and measuring the enzymatic rate of the conjugate in the presence of chlorophenol red-β-D-galactopyranoside (CPRG). The rate for each reaction vessel is measured bichromatically at 577 and 700 nm. The above ACMIA assay is then carried out on unknown samples known to contain endogeneous interfering substances. Samples are obtained from various hospitals and are identified as set forth in first column of Table 3 below. The concentration of bound tacrolimus [Y] is determined as described above. The equation [Z]=0.218[Y]+0.0981 with the values for “a” and “b” determined as discussed above for this ACMIA assay is used to determine a concentration of free tacrolimus [Z] in the samples. The estimated true total concentration of tacrolimus [X] in each sample is determined by adding [Y]+[Z].

[4] = system: endogeneous binding proteins; assay: ACMIA assay for tacrolimus on spiked whole blood samples with and without SIRO displacing agent (free vs bound tacrolimus); type: in vitro ADME; conditions: without SIRO

C=CC[C@@H]1/C=C(\C)C[C@H](C)C[C@H](OC)[C@H]2O[C@@](O)(C(=O)C(=O)N3CCCC[C@H]3C(=O)O[C@H](/C(C)=C/[C@@H]3CC[C@@H](O)[C@H](OC)C3)[C@H](C)[C@@H](O)CC1=O)[C@H](C)C[C@@H]2OC [tacrolimus]
ng/mL − displacer ([1]; sample 864408): 25.4 ng/mL | ng/mL − displacer ([1]; sample Dussel): 12.2 ng/mL | ng/mL − displacer ([1]; sample FP15): 3.8 ng/mL | Protein-Bound ([2]; BV 2.8 ng/mL): 2.1 ng/mL | +SIRO ng/mL (free plus bound tacrolimus) ([2]; BV 2.8 ng/mL): 2.8 ng/mL | Protein-Bound ([2]; BV 6.0 ng/mL): 4.9 ng/mL | +SIRO ng/mL (free plus bound tacrolimus) ([2]; BV 6.0 ng/mL): 6.0 ng/mL | Protein-Bound ([2]; BV 11.9 ng/mL): 9.7 ng/mL | +SIRO ng/mL (free plus bound tacrolimus) ([2]; BV 11.9 ng/mL): 11.9 ng/mL | Protein-Bound ([2]; BV 31.3 ng/mL): 25.6 ng/mL | +SIRO ng/mL (free plus bound tacrolimus) ([2]; BV 31.3 ng/mL): 31.3 ng/mL | Bound drug ([3]; sample 09-238-057): 0.0 ng/mL | ng/mL + displacer ([3]; sample 09-238-057): 32.7 ng/mL | ng/mL − displacer ([3]; sample 09-238-057): 36.1 ng/mL | Estimated True ([3]; sample 09-238-057): 0.0 ng/mL | Free drug ([3]; sample 09-238-057): 0.0 ng/mL | Bound drug ([3]; sample 109): 0.0 ng/mL | ng/mL + displacer ([3]; sample 109): 16.4 ng/mL | ng/mL − displacer ([3]; sample 109): 21.3 ng/mL | Estimated True ([3]; sample 109): 0.0 ng/mL | Free drug ([3]; sample 109): 0.0 ng/mL | Bound drug ([3]; sample 864408): 2.3 ng/mL | ng/mL + displacer ([3]; sample 864408): 27.7 ng/mL | Estimated True ([3]; sample 864408): 2.9 ng/mL | Free drug ([3]; sample 864408): 0.6 ng/mL | Bound drug ([3]; sample Dussel): 2.3 ng/mL | ng/mL + displacer ([3]; sample Dussel): 14.4 ng/mL | Estimated True ([3]; sample Dussel): 2.9 ng/mL | Free drug ([3]; sample Dussel): 0.6 ng/mL | Bound drug ([3]; sample FP15): 7.1 ng/mL | ng/mL + displacer ([3]; sample FP15): 10.9 ng/mL | Estimated True ([3]; sample FP15): 8.7 ng/mL | Free drug ([3]; sample FP15): 1.6 ng/mL | −SIRO ng/mL (free tacrolimus) ([4]; BV 2.8 ng/mL): 0.7 ng/mL | −SIRO ng/mL (free tacrolimus) ([4]; BV 6.0 ng/mL): 1.2 ng/mL | −SIRO ng/mL (free tacrolimus) ([4]; BV 11.9 ng/mL): 2.2 ng/mL | −SIRO ng/mL (free tacrolimus) ([4]; BV 31.3 ng/mL): 5.7 ng/mL

Reference: US9658218B2, “Determination of total analyte concentration” (Siemens Healthcare Diagnostics Inc., priority 2012, dated 2017)
